Test results as given in the supplement of paper PMC10307832.

Assays:
Assay in all cases: relative viability (nuclei count vs DMSO), 5 days (fraction); higher = more cells survive
Carboplatin + Crizotinib = compound: C1CC(C1)(C(=O)O)C(=O)O.[NH2-].[NH2-].[Pt+2] [Carboplatin] + C[C@@H](Oc1cc(-c2cnn(C3CCNCC3)c2)cnc1N)c1c(Cl)ccc(F)c1Cl [Crizotinib] (partner 1 µM)
Method in brief: (§1)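 Lung cancer cell lines were seeded in 1536-well plates and dosed by pin tool the next day, with either a single drug or a fixed anchor-drug dose combined with five library-drug doses (not always all listed) spaced in √10 steps. Five days later, one step fixed the cells and stained their nuclei (final 0.05% Triton X-100, 1% formaldehyde, 1 ug/ml Hoechst), and nuclei were counted on 4× images. Relative viability is the nuclei count in treated wells divided by the count in vehicle wells, and each value is the median of duplicate plates.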

GSK126 + Lapatinib = compound: CC[C@H](C)N1C=C(C2=C(C=C(C=C21)C3=CN=C(C=C3)N4CCNCC4)C(=O)NCC5=C(C=C(NC5=O)C)C)C [GSK126] + CS(=O)(=O)CCNCc1ccc(-c2ccc3ncnc(Nc4ccc(OCc5cccc(F)c5)c(Cl)c4)c3c2)o1 [Lapatinib] (partner 2 µM)
Method in brief: as §1

MLN4924 + Linsitinib = compound: NS(=O)(=O)OC[C@@H]1C[C@@H](n2ccc3c(N[C@H]4CCc5ccccc54)ncnc32)C[C@@H]1O [MLN4924] + C[C@]1(O)C[C@@H](c2nc(-c3ccc4ccc(-c5ccccc5)nc4c3)c3c(N)nccn32)C1 [Linsitinib] (partner 1 µM)
Method in brief: as §1

MLN4924 + Tozasertib = compound: NS(=O)(=O)OC[C@@H]1C[C@@H](n2ccc3c(N[C@H]4CCc5ccccc54)ncnc32)C[C@@H]1O [MLN4924] + Cc1cc(Nc2cc(N3CCN(C)CC3)nc(Sc3ccc(NC(=O)C4CC4)cc3)n2)n[nH]1 [Tozasertib] (partner 0.1 µM)
Method in brief: as §1

Row | Cell Line | relative viability (Carboplatin + Crizotinib; first compound 0.08 µM) | relative viability (Carboplatin + Crizotinib; first compound 0.253 µM) | relative viability (Carboplatin + Crizotinib; first compound 0.8 µM) | relative viability (Carboplatin + Crizotinib; first compound 2.53 µM) | relative viability (Carboplatin + Crizotinib; first compound 8 µM) | relative viability (GSK126 + Lapatinib; first compound 0.08 µM) | relative viability (GSK126 + Lapatinib; first compound 0.253 µM) | relative viability (GSK126 + Lapatinib; first compound 0.8 µM) | relative viability (GSK126 + Lapatinib; first compound 2.53 µM) | relative viability (GSK126 + Lapatinib; first compound 8 µM) | relative viability (MLN4924 + Linsitinib; first compound 0.04 µM) | relative viability (MLN4924 + Linsitinib; first compound 0.1265 µM) | relative viability (MLN4924 + Linsitinib; first compound 0.4 µM) | relative viability (MLN4924 + Linsitinib; first compound 1.265 µM) | relative viability (MLN4924 + Linsitinib; first compound 4 µM) | relative viability (MLN4924 + Tozasertib; first compound 0.04 µM) | relative viability (MLN4924 + Tozasertib; first compound 0.1265 µM) | relative viability (MLN4924 + Tozasertib; first compound 0.4 µM) | relative viability (MLN4924 + Tozasertib; first compound 1.265 µM) | relative viability (MLN4924 + Tozasertib; first compound 4 µM)
1 | 201T | 1.03 | 1.06 | 1.02 | 1.06 | 0.994 | 1.04 | 1.04 | 1.09 | 1.1 | 1.16 | 1.22 | 1.29 | 1.17 | 0.481 | 0.505 | 1.07 | 0.737 | 0.697 | 0.301 | 0.319
2 | A549 | 0.963 | 0.789 | 0.697 | 0.598 | 0.294 | 1.06 | 1.08 | 0.946 | 0.932 | 0.934 | 0.635 | 0.626 | 0.496 | 0.0571 | 0.047 | – | – | – | – | –
3 | A-427 | 0.91 | 1.13 | 0.894 | 0.976 | 0.799 | 1.14 | 1.1 | 1.05 | 1.07 | 0.962 | 0.686 | 0.381 | 0.315 | 0.222 | 0.217 | 0.168 | 0.164 | 0.128 | 0.131 | 0.133
4 | ABC-1 | 1.35 | 1.18 | 0.885 | 0.91 | 0.498 | 1.26 | 1.29 | 1.07 | 1.18 | 0.872 | 0.875 | 0.795 | 0.618 | 0.238 | 0.218 | 0.154 | 0.155 | 0.144 | 0.132 | 0.149
5 | BEN | 1.15 | 0.946 | 0.78 | 0.79 | 0.761 | 0.818 | 0.826 | 0.756 | 0.799 | 0.811 | 0.765 | 0.464 | 0.319 | 0.17 | 0.188 | 0.411 | 0.308 | 0.35 | 0.228 | 0.222
6 | CAL-12T | 0.856 | 0.7 | 0.738 | 0.66 | 0.707 | 0.63 | 0.674 | 0.615 | 0.809 | 0.644 | 0.717 | 0.636 | 0.237 | 0.135 | 0.143 | 0.325 | 0.365 | 0.262 | 0.237 | 0.167
7 | COR-L23 | 0.561 | 0.645 | 0.606 | 0.48 | 0.28 | 1.04 | 0.958 | 0.943 | 0.914 | 0.818 | 0.788 | 0.801 | 0.619 | 0.149 | 0.11 | 0.207 | 0.205 | 0.181 | 0.122 | 0.0744
8 | COR-L 105 | 0.814 | 0.812 | 0.757 | 0.609 | 0.501 | 0.35 | 0.371 | 0.39 | 0.372 | 0.339 | 0.8 | 0.615 | 0.424 | 0.283 | 0.231 | 0.343 | 0.331 | 0.323 | 0.247 | 0.241
9 | Calu-6 | 0.916 | 0.924 | 0.763 | 0.639 | 0.338 | 1.1 | 1.14 | 1.07 | 1.11 | 1.03 | 0.946 | 0.708 | 0.317 | 0.101 | 0.109 | – | – | – | – | –
10 | ChaGo-K-1 | 1.14 | 1.09 | 0.943 | 0.647 | 0.579 | – | – | – | – | – | – | – | – | – | – | 0.22 | 0.174 | 0.221 | 0.184 | 0.158
11 | EBC-1 | 0.186 | 0.202 | 0.175 | 0.182 | 0.2 | 0.232 | 0.188 | 0.178 | 0.21 | 0.202 | 0.812 | 0.628 | 0.182 | 0.102 | 0.13 | – | – | – | – | –
12 | EKVX | 1.19 | 1.09 | 0.985 | 0.875 | 0.947 | 0.226 | 0.22 | 0.211 | 0.203 | 0.221 | 0.949 | 0.653 | 0.471 | 0.169 | 0.127 | 0.408 | 0.457 | 0.299 | 0.155 | 0.127
13 | EMC-BAC-2 | 0.738 | 0.755 | 0.76 | 0.681 | 0.642 | 0.913 | 0.899 | 0.89 | 0.88 | 0.944 | 0.805 | 0.547 | 0.237 | 0.179 | 0.163 | 0.254 | 0.254 | 0.208 | 0.212 | 0.239
14 | EPLC-272H | 0.975 | 1.05 | 0.892 | 0.888 | 0.937 | 0.995 | 0.975 | 0.851 | 1.06 | 0.915 | 1.14 | 1.13 | 0.147 | 0.183 | 0.216 | 0.249 | 0.159 | 0.0675 | 0.132 | 0.133
15 | H3255 | 0.874 | 0.884 | 0.825 | 0.79 | 0.726 | 0.24 | 0.243 | 0.302 | 0.272 | 0.269 | 0.927 | 0.593 | 0.354 | 0.201 | 0.257 | 0.671 | 0.374 | 0.339 | 0.236 | 0.286
16 | HARA | 1.01 | 1.06 | 0.934 | 0.824 | 0.954 | 0.734 | 0.602 | 0.736 | 0.804 | 0.807 | 0.568 | 0.455 | 0.481 | 0.092 | 0.0886 | 0.101 | 0.0797 | 0.0797 | 0.0484 | 0.065
17 | HCC-15 | 0.914 | 0.875 | 0.775 | 0.688 | 0.643 | 0.841 | 0.888 | 0.806 | 0.785 | 0.727 | 0.558 | 0.249 | 0.16 | 0.0968 | 0.104 | 0.266 | 0.167 | 0.129 | 0.0769 | 0.0852
